28 compounds from article PMC10925993, “6-Aryl-4-cycloamino-1,3,5-triazine-2-amines: synthesis, antileukemic activity, and 3D-QSAR modelling” (RSC Advances, 2024) can be followed below.

Like-named read-outs stand apart in the source and are kept apart here.

The subject of series [1] is Jurkat T cells. Put plainly: Antiproliferative screening at 10 μM, MTS assay. The series is classed as cell-based, human. The conditions noted are these: for viability at 10 µM: Homo sapiens, Jurkat T cells, 72 h after treatment, MTS, mean of three independent experiments, read-out: Cell viability (%); for Antiproliferative activity against Jurkat T cells (in words): screening concentration 10 μM, 72 h. The method, then:
The Jurkat T cell line was chosen for its reliability as a model for chemotherapeutic studies, particularly in T-cell leukemia.[13]
An MTS (3-(4,5-dimethylthiazol-2-yl)-5-(3-carboxymethoxyphenyl)-2-(4-sulfophenyl)-2H-tetrazolium inner salt) assay[20] was used to assess the leukemic cell viability. […] A total of 2 × 10^3 cells per 100 μL cell culture media were seeded into each well of a 96-well plate and incubated for 24 h. Then, tested compounds or reference drugs [6-mercaptopurine (Merck Millipore, Germany), methotrexate (Merck Millipore, Germany) and cytarabine (Merck Millipore, Germany)] were added, followed by incubation for 72 h. […] The absorbance in each well was measured at 490 nm using a microplate reader (Tecan NanoQuant Infinite M200 Pro, Austria). The percentage of cell viability was estimated by comparing absorbance in wells with the treated and untreated (vehicle control) cells using the following formula: ODtreated/ODuntreated × 100%. All experiments were performed in triplicate and repeated in three independent experiments. The GI50 values were calculated using sigmoidal concentration-response curves generated by the GraphPad Prism 8 program.[21]
For orientation: Formazan colour is commonly taken as a measure of viable cells.

The test system of series [2] is Jurkat T cells. Put plainly: Inhibition of Jurkat T cell growth (GI50), MTS assay. It is filed as cell-based. The following applies: Homo sapiens. The method, then:
These compounds were selected for further testing to estimate their 50% growth inhibition (GI50) value. Standard antileukemic drugs mercaptopurine, methotrexate and cytarabine were chosen as positive controls.
An MTS (3-(4,5-dimethylthiazol-2-yl)-5-(3-carboxymethoxyphenyl)-2-(4-sulfophenyl)-2H-tetrazolium inner salt) assay[20] was used to assess the leukemic cell viability. Jurkat T cells (human leukemic T cell, clone E6-1) from American Type Culture Collection (ATCC) were cultured in RPMI-1640 medium (Nacalai Tesque, Japan) supplemented with 10% v/v fetal bovine serum (FBS) (Biosera, France). The cells were maintained at 37 °C in a humidified 5% CO2 incubator (Thermo Fisher, USA). A total of 2 × 10^3 cells per 100 μL cell culture media were seeded into each well of a 96-well plate and incubated for 24 h. Then, tested compounds or reference drugs [6-mercaptopurine (Merck Millipore, Germany), methotrexate (Merck Millipore, Germany) and cytarabine (Merck Millipore, Germany)] were added, followed by incubation for 72 h. After that, a mixture of MTS (Sigma Aldrich, USA) and phenazine methosulfate (PMS) (Nacalai Tesque, Japan) were added to each well, followed by another incubation for 1 h to 4 h at 37 °C. The absorbance in each well was measured at 490 nm using a microplate reader (Tecan NanoQuant Infinite M200 Pro, Austria). The percentage of cell viability was estimated by comparing absorbance in wells with the treated and untreated (vehicle control) cells using the following formula: ODtreated/ODuntreated × 100%. All experiments were performed in triplicate and repeated in three independent experiments. The GI50 values were calculated using sigmoidal concentration-response curves generated by the GraphPad Prism 8 program.[21]

[3] abbreviates: GI50 against Jurkat T cells converted to negative logarithmic scale, read-out: Experimental pGI50 (converted).
Setting [4] is: concentration required to inhibit Jurkat T cell growth by 50%, 72 h, MTS, mean of three independent experiments, read-out: GI50 ± SEM.

Compound `Nc1nc(-c2ccc(OC(F)(F)F)cc2)nc(N2CCCCC2)n1` [9{2,12}, 6-[4-(Trifluoromethoxy)phenyl]-4-piperidino-1,3,5-triazine-2-amine] had a melting point of 136 to 137 °C. For the same compound, in series [1], the viability at 10 µM stood at 12% and the “Antiproliferative activity against Jurkat T cells (in words)” value (“Antiproliferative activity” for short) is reported as “effectively inhibited Jurkat T cell growth”. Besides, in series [2] (setting [3]), the GI50 is 10.7 µM. Further, the GI50 in series [2] (setting [4]) is 10.8 ± 0.13 µM.

For the compound `Nc1nc(-c2cccc(Oc3ccccc3)c2)nc(N2CCCCC2)n1` [9{2,13}, 4-Piperidino-6-(3-phenoxyphenyl)-1,3,5-triazine-2-amine], the melting point was in the range of 125 to 126 °C. Also, in series [1], the viability at 10 µM was 10% and the “Antiproliferative activity” value is recorded as “effectively inhibited Jurkat T cell growth”. In series [2] (setting [3]), the GI50 is 6.92 µM. In addition, the GI50 in series [2] (setting [4]) came to 6.88 ± 1.22 µM.

The compound `CC1CCN(c2nc(N)nc(-c3cccc([N+](=O)[O-])c3)n2)CC1` [9{3,10}, 4-(4-Methylpiperidino)-6-(3-nitrophenyl)-1,3,5-triazine-2-amine] registered a melting point of 153 to 154 °C. The viability at 10 µM in series [1] is 84%.

As to `CN1CCN(c2nc(N)nc(-c3cccc(F)c3)n2)CC1` [9{4,2}, 6-(3-Fluorophenyl)-4-(4-methylpiperazino)-1,3,5-triazine-2-amine], the melting point was 187 to 188 °C. Also, in series [1], the viability at 10 µM was 95%.

Consider `CN1CCN(c2nc(N)nc(-c3ccc(F)cc3)n2)CC1` [9{4,3}, 6-(4-Fluorophenyl)-4-(4-methylpiperazino)-1,3,5-triazine-2-amine], for which the melting point fell in the range of 192 to 193 °C. For the same compound, in series [1], the viability at 10 µM is 100%.

`Cc1cccc(-c2nc(N)nc(N3CCN(C)CC3)n2)c1` [9{4,5}, 6-(3-Methylphenyl)-4-(4-methylpiperazino)-1,3,5-triazine-2-amine] came in with a melting point of 194 to 195 °C. Also, in series [1], the viability at 10 µM is 95%.

`Cc1ccc(-c2nc(N)nc(N3CCN(C)CC3)n2)cc1` [9{4,6}, 6-(4-Methylphenyl)-4-(4-methylpiperazino)-1,3,5-triazine-2-amine] registered a melting point of 220 to 221 °C. Also, the viability at 10 µM in series [1] turned out to be 100%.

For `CN1CCN(c2nc(N)nc(-c3ccc(C(C)(C)C)cc3)n2)CC1` [9{4,7}, 6-[4-(tert-Butyl)phenyl]-4-(4-methylpiperazino)-1,3,5-triazine-2-amine], in series [1], the viability at 10 µM amounted to 16% and the “Antiproliferative activity” value is reported as “effectively inhibited Jurkat T cell growth”. In addition, in series [2] (setting [3]), the GI50 was 21.9 µM. The GI50 in series [2] (setting [4]) came out at 21.8 ± 1.1 µM.

Take `CN1CCN(c2nc(N)nc(-c3ccc(N(C)C)cc3)n2)CC1` [9{4,8}, 6-[4-(N,N-Dimethylamino)phenyl]-4-(4-methylpiperazino)-1,3,5-triazine-2-amine]: the melting point fell in the range of 244 to 245 °C. Besides, the viability at 10 µM in series [1] is 99%.

As to `COc1ccc(-c2nc(N)nc(N3CCN(C)CC3)n2)cc1` [9{4,9}, 6-(4-Methoxyphenyl)-4-(4-methylpiperazino)-1,3,5-triazine-2-amine], the melting point was 196 to 197 °C. Further, the viability at 10 µM in series [1] came out at 100%.

Compound `CN1CCN(c2nc(N)nc(-c3cccc([N+](=O)[O-])c3)n2)CC1` [9{4,10}, 4-(4-Methylpiperazino)-6-(3-nitrophenyl)-1,3,5-triazine-2-amine] returned a melting point of 226 to 227 °C. The viability at 10 µM in series [1] was 100%.

As to `CN1CCN(c2nc(N)nc(-c3ccc(C(F)(F)F)cc3)n2)CC1` [9{4,11}, 6-[4-(Trifluoromethyl)phenyl]-4-(4-methylpiperazino)-1,3,5-triazine-2-amine], the melting point is 194 to 195 °C. The viability at 10 µM in series [1] is 100%.

`CN1CCN(c2nc(N)nc(-c3ccc(OC(F)(F)F)cc3)n2)CC1` [9{4,12}, 6-[4-(Trifluoromethoxy)phenyl]-4-(4-methylpiperazino)-1,3,5-triazine-2-amine] returned a melting point of 194 to 195 °C. For the same compound, the viability at 10 µM in series [1] was 100%.

The compound `CN1CCN(c2nc(N)nc(-c3cccc(OCc4ccccc4)c3)n2)CC1` [9{4,14}, 6-[3-(Benzyloxy)phenyl]-4-(4-methylpiperazino)-1,3,5-triazine-2-amine] displayed a melting point of 117 to 118 °C. In series [1], the viability at 10 µM came out at 73%.

In turn, `CN1CCN(c2nc(N)nc(-c3ccc(OCc4ccccc4)cc3)n2)CC1` [9{4,15}, 6-[4-(Benzyloxy)phenyl]-4-(4-methylpiperazino)-1,3,5-triazine-2-amine] came in with a melting point of 191 to 192 °C. In addition, the viability at 10 µM in series [1] is 74%.

For the compound `COc1ccc(-c2nc(N)nc(N3CCN(C)CC3)n2)cc1OC` [9{4,16}, 6-(3,4-Dimethoxyphenyl)-4-(4-methylpiperazino)-1,3,5-triazine-2-amine], the melting point was in the range of 223 to 224 °C. The viability at 10 µM in series [1] was 100%.

Take `COc1cc(-c2nc(N)nc(N3CCN(C)CC3)n2)cc(OC)c1OC` [9{4,17}, 6-(3,4,5-Trimethoxyphenyl)-4-(4-methylpiperazino)-1,3,5-triazine-2-amine]: the melting point fell in the range of 234 to 235 °C. Moreover, in series [1], the viability at 10 µM amounted to 100%.

In the case of `Nc1nc(-c2ccccc2)nc(N2CCc3ccccc3C2)n1` [9{6,1}], the viability at 10 µM in series [1] was 12%. Besides, the GI50 in series [2] (setting [3]) was 1.95 µM; in series [2] (setting [4]), 1.95 ± 0.25 µM.

The compound `CN(C)c1ccc(-c2nc(N)nc(N3CCc4ccccc4C3)n2)cc1` [9{6,8}, 6-[4-(N,N-Dimethylamino)phenyl]-4-(3,4-dihydroisoquinolin-2(1H)-yl)-1,3,5-triazine-2-amine] displayed a melting point of 201 to 202 °C. Besides, the viability at 10 µM in series [1] was 100%.

Take `Nc1nc(-c2ccc(OCc3ccccc3)cc2)nc(N2CCc3ccccc3C2)n1` [9{6,15}, 6-(4-(Benzyloxy)phenyl)-4-(3,4-dihydroisoquinolin-2(1H)-yl)-1,3,5-triazine-2-amine]: the melting point was 143 to 144 °C. Besides, in series [1], the viability at 10 µM turned out to be 59%.

Compound `COc1cc(-c2nc(N)nc(N3CCc4ccccc4C3)n2)cc(OC)c1OC` [9{6,17}, 6-(3,4,5-Trimethoxyphenyl)-4-(3,4-dihydroisoquinolin-2(1H)-yl)-1,3,5-triazine-2-amine] had a melting point of 198 to 199 °C. In addition, the viability at 10 µM in series [1] amounted to 96%.

The compound `Nc1nc(-c2cccs2)nc(N2CCc3ccccc3C2)n1` [9{6,18}, 4-(3,4-Dihydroisoquinolin-2(1H)-yl)-6-(2-thienyl)-1,3,5-triazine-2-amine] registered a melting point of 170 to 171 °C. In addition, in series [1], the viability at 10 µM came to 78% and the “Antiproliferative activity” value is “inactive against Jurkat T cells”.

Compound `COc1ccc(-c2nc(N)nc(N3CCc4ccccc43)n2)cc1` [9{7,9}, 6-(4-Methoxyphenyl)-4-(indolin-1-yl)-1,3,5-triazine-2-amine] came in with a melting point of 219 to 220 °C. In series [1], the viability at 10 µM was 85%.

`Nc1nc(-c2ccc(C(F)(F)F)cc2)nc(N2CCc3ccccc32)n1` [9{7,11}, 6-[4-(Trifluoromethyl)phenyl]-4-(indolin-1-yl)-1,3,5-triazine-2-amine] yielded a melting point of 227 to 228 °C. Also, in series [1], the viability at 10 µM is 53%.

`Nc1nc(-c2ccc(OC(F)(F)F)cc2)nc(N2CCc3ccccc32)n1` [9{7,12}, 6-[4-(Trifluoromethoxy)phenyl]-4-(indolin-1-yl)-1,3,5-triazine-2-amine] came in with a melting point of 195 to 196 °C. Besides, the viability at 10 µM in series [1] amounted to 73%.

In turn, `COc1ccc(-c2nc(N)nc(N3CCc4ccccc43)n2)cc1OC` [9{7,16}, 6-(3,4-Dimethoxyphenyl)-4-(indolin-1-yl)-1,3,5-triazine-2-amine] showed a melting point of 183 to 184 °C. Besides, the viability at 10 µM in series [1] came out at 67%.

For the compound `Nc1ccn([C@@H]2O[C@H](CO)[C@@H](O)[C@@H]2O)c(=O)n1` [Cytarabine, cytarabine, reference compound], the GI50 in series [2] (setting [4]) stood at 0.29 ± 0.01 µM.

Take `S=c1[nH]cnc2nc[nH]c12` [Mercaptopurine, mercaptopurine, reference compound]: in series [2] (setting [4]), the GI50 came to 11.1 ± 4.89 µM.

Broadly, the melting point is the temperature of the solid-liquid transition. A word on the viability: it is a per cent measure of how many cells are alive, often set against a control.
